Values quoted from earlier work in US7998474B2, “Methods for treating an inflammatory disease of the bowel” (Rowett Research Institute, priority 2001, dated 2011).

Tested on: Clostridium perfringens serotype A
Conditions: mouse, in vivo; cited from earlier work

For Bacteroides thetaiotaomicron [BT], the “Resistance of ex-germ free mice to infection by Clostridium perfringens serotype A” value is listed as “did not however increase the resistance”.
